Test results reported in US20180037595A1, “BENZOXABOROLE COMPOUNDS AND USES THEREOF” (GLAXOSMITHKLINE INTELLECTUAL PROPERTY (NO.2) LIMITED, priority 2015, published 2018).

Test system: M. tuberculosis clinical isolates
Assay: MIC against clinical strains (BACTEC MGIT 960 System)
Assay type: cell-based
Conditions: Mycobacterium tuberculosis

| SMILES | MIC (strain 330, resistant clinical isolate, resistance HSR (Tables 2B, 2D)) | MIC (against 85 of the 96 clinical isolate strains tested (sensitive and resistant)) |
| --- | --- | --- |
| Cl.NC[C@H]1OB2OCCOc3ccc(Cl)c1c32 [Example 4, (S)-(3-chloro-7,8-dihydro-2H-1,6,9-trioxa-9a-borabenzo[cd]azulen-2-yl)methanamine hydrochloride] | 0.08 µM | – |
| NC[C@H]1OB2OCCOc3ccc(Cl)c1c32 [Example G4-CI] | – | < 0.1 µM |
